# Experimental data taken from US20250073348A1, “CAMPTOTHECIN CONJUGATES” (priority 2018, published 2025).
# Experiments:
# [1] = test system: DEL-BVR (DEL brentuximab vedotin resistant line); assay: In vitro cytotoxicity on MDR+ line, CellTiter-Glo, 96 h; format: cell-based; conditions: Table 6
# Method: (§1) In vitro potency was assessed on multiple cancer cell lines. All cell lines were authenticated by STR profiling at IDEXX Bioresearch and cultured for no more than 2 months after resuscitation. Cells cultured in log-phase growth were seeded for 24 hours in 96-well plates containing 150 μl RPMI 1640 supplemented with 20% FBS. Serial dilutions of antibody-drug conjugates in cell culture media were prepared at 4× working concentrations, and 50 μl of each dilution was added to the 96-well plates. Following addition of test articles, cells were incubated with test articles for 4 days at 37° C. After 96 hours, growth inhibition was assessed by CellTiter-Glo® (Promega, Madison, WI) and luminescence was measured on a plate reader. The EC50 value, determined in triplicate, is defined here as the concentration that results in 50% reduction in cell growth relative to untreated controls.
# (§2) In the following Tables IC50 values for ADCs and CPT free drugs are given in ng/mL and […] concentrations, respectively, with parenthetic values representing percent cells remaining at the highest concentration tested (1000 ng/mL for ADCs and 1 μM for CPT free compound, unless otherwise indicated) relative to untreated cells. Cell viability was determined by CellTiter-Glo staining after 96 h exposure to ADC. ND=Not Determined. […]
# [2] = test system: DEL; assay: In vitro cytotoxicity, CellTiter-Glo, 96 h; format: cell-based; conditions: Table 6
# Method: as §1, §2
# [3] = 1000 ng/mL, relative to untreated cells
substance,measurement,setting,value
"Ag2-vcMMAE (8): vcMMAE conjugate on Ag2; ""Ag2 refers to cAC10, which targets the CD30 antigen""","percent cells remaining at the highest dose tested, DEL/BVR",[1]; [3],93%
same,IC50 DEL/BVR,"[1]; Ag2(+), MDR(+) DEL-BVR, 96 h",>1 mg/L
same,"percent cells remaining at the highest dose tested, DEL",[2]; [3],1%
same,IC50 DEL,"[2]; Ag2(+) parental DEL, 96 h",0.0005 mg/L
